In ChEMBL document CHEMBL2346657, “Synthesis of novel 2-amino-4-(5'-substituted 2'-phenyl-1H-indol-3'-yl)-6-aryl-4H-pyran-3-carbonitrile derivatives as antimicrobial and antioxidant agents” (2013):
Active and inactive are the calls of the source. Unless noted, no cut-off for these calls is given here.

Legend:
Assay type in all cases: functional
Aspergillus flavus [1] = assay: Antimicrobial activity against Aspergillus flavus MTCC 1973 at 750 ug/ml after 72 hrs by cup plate method; details: MTCC 1973, 72 h, read-out: IZ
Aspergillus oryzae [2] = assay: Antimicrobial activity against Aspergillus oryzae MTCC 3567 at 1000 ug/ml after 72 hrs by cup plate method; details: MTCC 3567, 72 h, read-out: IZ
Pseudomonas aeruginosa [3] = assay: Antimicrobial activity against Pseudomonas aeruginosa MTCC 1688 at 750 ug/ml after 24 hrs by cup plate method; details: MTCC 1688, 24 h, read-out: IZ
Aspergillus niger [4] = assay: Antimicrobial activity against Aspergillus niger MTCC 281 at 1000 ug/ml after 72 hrs by cup plate method; details: MTCC 281, 72 h, read-out: IZ
Escherichia coli [5] = assay: Antimicrobial activity against Escherichia coli MTCC 723 at 1000 ug/ml after 24 hrs by cup plate method; details: MTCC 723, 24 h, read-out: IZ
Klebsiella pneumoniae [6] = assay: Antimicrobial activity against Klebsiella pneumoniae NCTC 13368 at 750 ug/ml after 24 hrs by cup plate method; details: NCTC 13368, 24 h, read-out: IZ
Pseudomonas aeruginosa [7] = assay: Antimicrobial activity against Pseudomonas aeruginosa MTCC 1688 at 1000 ug/ml after 24 hrs by cup plate method; details: MTCC 1688, 24 h, read-out: IZ
Aspergillus oryzae [8] = assay: Antimicrobial activity against Aspergillus oryzae MTCC 3567 at 500 ug/ml after 72 hrs by cup plate method; details: MTCC 3567, 72 h, read-out: IZ
Klebsiella pneumoniae [9] = assay: Antimicrobial activity against Klebsiella pneumoniae NCTC 13368 at 1000 ug/ml after 24 hrs by cup plate method; details: NCTC 13368, 24 h, read-out: IZ
Aspergillus flavus [10] = assay: Antimicrobial activity against Aspergillus flavus MTCC 1973 at 1000 ug/ml after 72 hrs by cup plate method; details: MTCC 1973, 72 h, read-out: IZ
Aspergillus oryzae [11] = assay: Antimicrobial activity against Aspergillus oryzae MTCC 3567 at 750 ug/ml after 72 hrs by cup plate method; details: MTCC 3567, 72 h, read-out: IZ
Aspergillus terreus [12] = assay: Antimicrobial activity against Aspergillus terreus MTCC 1782 at 1000 ug/ml after 72 hrs by cup plate method; details: MTCC 1782, 72 h, read-out: IZ
Staphylococcus aureus [13] = assay: Antimicrobial activity against Staphylococcus aureus ATCC 29513 at 1000 ug/ml after 24 hrs by cup plate method; details: ATCC 29513, 24 h, read-out: IZ
Aspergillus flavus [14] = assay: Antimicrobial activity against Aspergillus flavus MTCC 1973 at 500 ug/ml after 72 hrs by cup plate method; details: MTCC 1973, 72 h, read-out: IZ
Aspergillus niger [15] = assay: Antimicrobial activity against Aspergillus niger MTCC 281 at 500 ug/ml after 72 hrs by cup plate method; details: MTCC 281, 72 h, read-out: IZ
Staphylococcus aureus [16] = assay: Antimicrobial activity against Staphylococcus aureus ATCC 29513 at 500 ug/ml after 24 hrs by cup plate method; details: ATCC 29513, 24 h, read-out: IZ
Aspergillus terreus [17] = assay: Antimicrobial activity against Aspergillus terreus MTCC 1782 at 750 ug/ml after 72 hrs by cup plate method; details: MTCC 1782, 72 h, read-out: IZ
Klebsiella pneumoniae [18] = assay: Antimicrobial activity against Klebsiella pneumoniae NCTC 13368 at 500 ug/ml after 24 hrs by cup plate method; details: NCTC 13368, 24 h, read-out: IZ
Aspergillus terreus [19] = assay: Antimicrobial activity against Aspergillus terreus MTCC 1782 at 500 ug/ml after 72 hrs by cup plate method; details: MTCC 1782, 72 h, read-out: IZ
[20] = Antioxidant activity assessed as metal chelating activity by measuring inhibition of ferrozine-Fe2+ complex formation at 25 to 100 ug/ml
[21] = test system: Radical scavenging activity; assay: Antioxidant activity assessed as DPPH radical scavenging activity at 100 ug/ml
Staphylococcus aureus [22] = assay: Antimicrobial activity against Staphylococcus aureus ATCC 29513 at 750 ug/ml after 24 hrs by cup plate method; details: ATCC 29513, 24 h, read-out: IZ
Aspergillus niger [23] = assay: Antimicrobial activity against Aspergillus niger MTCC 281 at 750 ug/ml after 72 hrs by cup plate method; details: MTCC 281, 72 h, read-out: IZ
Pseudomonas aeruginosa [24] = assay: Antimicrobial activity against Pseudomonas aeruginosa MTCC 1688 at 500 ug/ml after 24 hrs by cup plate method; details: MTCC 1688, 24 h, read-out: IZ
Escherichia coli [25] = assay: Antimicrobial activity against Escherichia coli MTCC 723 at 750 ug/ml after 24 hrs by cup plate method; details: MTCC 723, 24 h, read-out: IZ
Escherichia coli [26] = assay: Antimicrobial activity against Escherichia coli MTCC 723 at 500 ug/ml after 24 hrs by cup plate method; details: MTCC 723, 24 h, read-out: IZ
[27] = Antioxidant activity assessed as ferric ion reducing activity at 100 ug/ml by FRAP assay

| SMILES | zone of inhibition at 750 µg/mL (Aspergillus flavus [1]) | zone of inhibition at 1000 µg/mL (Aspergillus oryzae [2]) | zone of inhibition at 750 µg/mL (Pseudomonas aeruginosa [3]) | zone of inhibition at 1000 µg/mL (Escherichia coli [5]) | zone of inhibition at 750 µg/mL (Klebsiella pneumoniae [6]) | zone of inhibition at 1000 µg/mL (Pseudomonas aeruginosa [7]) | zone of inhibition at 500 µg/mL (Aspergillus oryzae [8]) | zone of inhibition at 1000 µg/mL (Klebsiella pneumoniae [9]) | zone of inhibition at 1000 µg/mL (Aspergillus flavus [10]) | zone of inhibition at 750 µg/mL (Aspergillus oryzae [11]) | zone of inhibition at 1000 µg/mL (Staphylococcus aureus [13]) | zone of inhibition at 500 µg/mL (Aspergillus flavus [14]) | zone of inhibition at 500 µg/mL (Aspergillus niger [15]) | zone of inhibition at 500 µg/mL (Staphylococcus aureus [16]) | zone of inhibition at 500 µg/mL (Klebsiella pneumoniae [18]) | Activity [20] | zone of inhibition at 750 µg/mL (Staphylococcus aureus [22]) | zone of inhibition at 750 µg/mL (Aspergillus niger [23]) | zone of inhibition at 500 µg/mL (Pseudomonas aeruginosa [24]) | zone of inhibition at 750 µg/mL (Escherichia coli [25]) | other results |
| --- | --- | --- | --- | --- | --- | --- | --- | --- | --- | --- | --- | --- | --- | --- | --- | --- | --- | --- | --- | --- | --- |
| N#CC1=C(N)OC(c2ccccc2)=CC1c1c(-c2ccccc2)[nH]c2ccccc12 (centres undefined) | 10 mm | 5 mm | 9 mm | 8 mm | 13 mm | 9 mm | 9 mm | 13 mm | 10 mm | 9 mm | 10 mm | 10 mm | 6 mm | 10 mm | 13 mm | Active | 10 mm | 5 mm | 9 mm | 8 mm | zone of inhibition at 1000 µg/mL (Aspergillus niger [4]): 10 mm; zone of inhibition at 1000 µg/mL (Aspergillus terreus [12]): 3 mm; zone of inhibition at 750 µg/mL (Aspergillus terreus [17]): 5 mm; zone of inhibition at 500 µg/mL (Aspergillus terreus [19]): 9 mm; Activity [21]: Active; zone of inhibition at 500 µg/mL (Escherichia coli [26]): 10 mm |
| Cc1ccc(C2=CC(c3c(-c4ccccc4)[nH]c4ccc(C)cc34)c3c(N)n[nH]c3O2)cc1 (centres undefined) | 4 mm | 9 mm | 4 mm | 10 mm | 10 mm | 4 mm | 10 mm | 10 mm | 3 mm | 9 mm | 5 mm | 4 mm | 9 mm | 7 mm | 11 mm | Active | 5 mm | 9 mm | 8 mm | 9 mm | zone of inhibition at 1000 µg/mL (Aspergillus terreus [12]): 0 mm; zone of inhibition at 750 µg/mL (Aspergillus terreus [17]): 0 mm; zone of inhibition at 500 µg/mL (Aspergillus terreus [19]): 0 mm; Activity [21]: Active; zone of inhibition at 500 µg/mL (Escherichia coli [26]): 8 mm |
| Nc1n[nH]c2c1C(c1c(-c3ccccc3)[nH]c3ccc(Cl)cc13)C=C(c1ccc(Cl)cc1)O2 (centres undefined) | 9 mm | 10 mm | 9 mm | 14 mm | 13 mm | 9 mm | 10 mm | 13 mm | 5 mm | 10 mm | 14 mm | 9 mm | 10 mm | 14 mm | 13 mm | Active | 14 mm | 10 mm | 10 mm | 13 mm | zone of inhibition at 1000 µg/mL (Aspergillus niger [4]): 11 mm; zone of inhibition at 1000 µg/mL (Aspergillus terreus [12]): 8 mm; zone of inhibition at 750 µg/mL (Aspergillus terreus [17]): 9 mm; zone of inhibition at 500 µg/mL (Aspergillus terreus [19]): 9 mm; Activity [27]: Active; zone of inhibition at 500 µg/mL (Escherichia coli [26]): 13 mm |
| Cc1ccc2[nH]c(-c3ccccc3)c(C3C=C(c4ccccc4)Oc4nc[nH]c(=O)c43)c2c1 (centres undefined) | 8 mm | 9 mm | 5 mm | 6 mm | 5 mm | 5 mm | 9 mm | 5 mm | 8 mm | 9 mm | 10 mm | 8 mm | 5 mm | 11 mm | 5 mm | Active | 10 mm | 4 mm | 5 mm | 6 mm | zone of inhibition at 1000 µg/mL (Aspergillus niger [4]): 4 mm; zone of inhibition at 1000 µg/mL (Aspergillus terreus [12]): 3 mm; zone of inhibition at 750 µg/mL (Aspergillus terreus [17]): 3 mm; zone of inhibition at 500 µg/mL (Aspergillus terreus [19]): 4 mm; Activity [27]: Active; zone of inhibition at 500 µg/mL (Escherichia coli [26]): 8 mm |
| Cc1ccc2[nH]c(-c3ccccc3)c(C3C=C(c4ccc(Cl)cc4)Oc4[nH]nc(N)c43)c2c1 (centres undefined) | 5 mm | 7 mm | 6 mm | 8 mm | 12 mm | 5 mm | 8 mm | 12 mm | 2 mm | 7 mm | 0 mm | 5 mm | 5 mm | 2 mm | 12 mm | Active | 0 mm | 3 mm | 6 mm | 8 mm | zone of inhibition at 1000 µg/mL (Aspergillus niger [4]): 2 mm; zone of inhibition at 1000 µg/mL (Aspergillus terreus [12]): 10 mm; zone of inhibition at 750 µg/mL (Aspergillus terreus [17]): 10 mm; zone of inhibition at 500 µg/mL (Aspergillus terreus [19]): 10 mm; Activity [21]: Active; zone of inhibition at 500 µg/mL (Escherichia coli [26]): 9 mm |
| N#CC1=C(N)OC(c2ccc(Cl)cc2)=CC1c1c(-c2ccccc2)[nH]c2ccc(Cl)cc12 (centres undefined) | 12 mm | 9 mm | 10 mm | 14 mm | 10 mm | 10 mm | 10 mm | 10 mm | 13 mm | 10 mm | 13 mm | 12 mm | 10 mm | 13 mm | 10 mm | Active | 13 mm | 10 mm | 10 mm | 13 mm | zone of inhibition at 1000 µg/mL (Aspergillus niger [4]): 10 mm; Activity [21]: Active; zone of inhibition at 500 µg/mL (Escherichia coli [26]): 13 mm |
| Cc1ccc(C2=CC(c3c(-c4ccccc4)[nH]c4ccc(Cl)cc34)c3c(N)n[nH]c3O2)cc1 (centres undefined) | 3 mm | 5 mm | 12 mm | 2 mm | 12 mm | 13 mm | 8 mm | 12 mm | 3 mm | 5 mm | 14 mm | 3 mm | 9 mm | 14 mm | 12 mm | Active | 14 mm | 8 mm | 12 mm | 2 mm | zone of inhibition at 1000 µg/mL (Aspergillus niger [4]): 0 mm; zone of inhibition at 1000 µg/mL (Aspergillus terreus [12]): 4 mm; zone of inhibition at 750 µg/mL (Aspergillus terreus [17]): 4 mm; zone of inhibition at 500 µg/mL (Aspergillus terreus [19]): 5 mm; Activity [27]: Active; zone of inhibition at 500 µg/mL (Escherichia coli [26]): 4 mm |
| Cc1ccc(C2=CC(c3c(-c4ccccc4)[nH]c4ccccc34)c3c(N)nc(=O)[nH]c3O2)cc1 (centres undefined) | 3 mm | 10 mm | 3 mm | 8 mm | 4 mm | 3 mm | 10 mm | 3 mm | 3 mm | 10 mm | 5 mm | 3 mm | 5 mm | 5 mm | 6 mm | Active | 3 mm | 3 mm | 5 mm | 7 mm | zone of inhibition at 1000 µg/mL (Aspergillus niger [4]): 2 mm; zone of inhibition at 1000 µg/mL (Aspergillus terreus [12]): 3 mm; zone of inhibition at 750 µg/mL (Aspergillus terreus [17]): 3 mm; zone of inhibition at 500 µg/mL (Aspergillus terreus [19]): 3 mm; Activity [21]: Active; zone of inhibition at 500 µg/mL (Escherichia coli [26]): 7 mm |
